Reference: US20210337789A1, “Derivatives of m-Guaiacol, Their Preparation and Their Uses” (Universite de Caen Normandie, priority 2018, published 2021)

Legend:
Klebsiella pneumoniae = experiment: Bacterial growth screening on wild-type phenotype strain, K. pneumoniae; type: cell-based; also: key: 0: no effect observed; 1: effect observed only when the molecule is tested pure; 2: effect observed at several concentrations, but which gradually decreases the dilutions; 3: strong effect observed at each concentration of molecule tested
[1] = system: K. pneumoniae strains presenting high levels of resistance; experiment: Bacterial growth on K. pneumoniae strains presenting high levels of resistance; type: cell-based, Klebsiella pneumoniae; design: key to Effects (0 < 1 < 2 < 3): 0 = no effect; 1 = pure only; 2 = several concs; 3 = strong at each; key to Δ DO: change in optical density measured at 600 nm; details: for Effects (0 < 1 < 2 < 3): molecules at 1, 0.5 and 0.1 mg/ml, triclosan at 0.1 mg/ml

Q: What does the source list for COc1cc(O)c(Br)c(Cl)c1F [sr7615]?
A: Effect level, K. pneumoniae (Klebsiella pneumoniae): 2; Δ DO ([1]; K. pneumoniae Strain 1, 0.1 mg/ml): 0.025; Δ DO ([1]; K. pneumoniae Strain 1, 0.5 mg/ml): 0.490; Δ DO ([1]; K. pneumoniae Strain 1, 1 mg/ml): 0.640; Effects (0 < 1 < 2 < 3) ([1]; K. pneumoniae Strain 1): 2; Δ DO ([1]; K. pneumoniae Strain 2, 0.1 mg/ml): −0.021; Δ DO ([1]; K. pneumoniae Strain 2, 0.5 mg/ml): 0.518; Δ DO ([1]; K. pneumoniae Strain 2, 1 mg/ml): 0.621; Effects (0 < 1 < 2 < 3) ([1]; K. pneumoniae Strain 2): 2; Δ DO ([1]; K. pneumoniae Strain 3, 0.1 mg/ml): 0.134; Δ DO ([1]; K. pneumoniae Strain 3, 0.5 mg/ml): 0.598; Δ DO ([1]; K. pneumoniae Strain 3, 1 mg/ml): 0.913; Effects (0 < 1 < 2 < 3) ([1]; K. pneumoniae Strain 3): 2
